From patent US7045532B2 (Millennium Pharmaceuticals, Inc., priority 1999, dated 2006) come the findings set out here.

This experiment has as its target T1, ACE-2 (Homo sapiens, UniProt Q9BYF1).
T1 construct: a stop codon inserted after the serine immediately preceding the transmembrane domain; made in house; host or cells: CHO K1 cells (transient transfection, purified from conditioned medium)
Briefly: ACE-2 Competitive Substrate Assay (ACS Assay). The class given is biochemical.

The mark [1] stands for this setting: Ki class, compounds tested in 5% DMSO, 12 compound concentrations, Ki=Kiapp/(1+[S]/Km), read-out: Human ACE-2 Activity.
[2] abbreviates: Table 3, very good ACE-2 inhibiting compounds, species not given, read-out: ACE-2 Activity, Ki.

Each structure is given as a SMILES string. Where two headings read alike, the source gives them in different places.

T1 sequence (Q9BYF1 18-740 limits assumed): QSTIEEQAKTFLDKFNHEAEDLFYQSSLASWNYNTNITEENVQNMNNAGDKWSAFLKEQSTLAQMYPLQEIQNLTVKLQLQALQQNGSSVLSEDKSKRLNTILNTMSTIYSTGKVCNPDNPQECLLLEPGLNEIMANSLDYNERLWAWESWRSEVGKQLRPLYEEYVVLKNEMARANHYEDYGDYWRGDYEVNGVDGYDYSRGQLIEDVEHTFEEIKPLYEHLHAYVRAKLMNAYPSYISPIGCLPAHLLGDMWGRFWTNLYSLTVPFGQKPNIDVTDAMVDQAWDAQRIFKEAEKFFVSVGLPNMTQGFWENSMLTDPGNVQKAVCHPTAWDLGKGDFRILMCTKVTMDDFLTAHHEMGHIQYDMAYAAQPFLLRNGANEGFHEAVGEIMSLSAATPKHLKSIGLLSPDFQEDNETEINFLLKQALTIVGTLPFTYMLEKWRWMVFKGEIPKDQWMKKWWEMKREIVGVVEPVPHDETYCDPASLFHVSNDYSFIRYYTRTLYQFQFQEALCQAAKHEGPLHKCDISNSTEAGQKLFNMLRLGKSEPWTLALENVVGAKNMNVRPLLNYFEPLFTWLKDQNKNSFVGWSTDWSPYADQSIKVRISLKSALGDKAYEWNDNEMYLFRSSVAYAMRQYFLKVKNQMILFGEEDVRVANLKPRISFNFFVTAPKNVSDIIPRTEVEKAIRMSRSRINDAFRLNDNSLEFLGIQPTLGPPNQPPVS

On to `COC(=O)[C@H](Cc1cncn1Cc1cc(Cl)cc(Cl)c1)N[C@@H](CC(C)C)C(=O)O` [KX, (S,S) 2-{2-[3-(3,5-Dichloro-benzyl)-3H-imidazol-4-yl]-1-methoxycarbonyl-ethylamino}-4-methyl-pentanoic acid], for which the Ki is, setting by setting: under setting [1], less than 0.1 µM; under setting [2], less than 0.05 µM.
As for `COC(=O)[C@H](Cc1cncn1Cc1cc(Cl)cc(Cl)c1)N[C@H](CC(C)C)C(=O)O` [KY, 2-[2-[3-(3,5-Dichloro-benzyl)-3H-imidazol-4-yl]-1-methoxycarbonyl-ethylamino]-4-methyl-pentanoic acid], under setting [1], the Ki was in the range of 0.1 to 0.5 µM.
Regarding `CC1(C)SC(C(=O)O)NC1C(=O)O` (stereo not drawn) [L, 5,5-Dimethyl-thiazolidine-2,4-dicarboxylic acid], the Ki (Ki class, compounds tested in 5% DMSO, 12 concentrations, read-out: Human ACE-2 Activity) is greater than 0.5 µM.
For the compound `COC(=O)[C@H](Cc1cncn1Cc1cc(Cl)cc(Cl)c1)N[C@H](CC(C)C)C(=O)OCc1ccccc1` [LA, 2-[2-[3-(3,5-Dichloro-benzyl)-3H-imidazol-4-yl]-1-methoxycarbonyl-ethylamino]-4-methyl-pentanoic acidbenzyl ester], the Ki under setting [1] was greater than 0.5 µM.
In the case of `CC(C)C[C@H](N[C@@H](Cc1cncn1Cc1cc(Cl)cc(Cl)c1)C(=O)OCc1ccccc1)C(=O)O` [LB, (S,S) 2-{1-Benzyloxycarbonyl-2-[3-(3,5-dichloro-benzyl)-3H-imidazol-4-yl]-ethylamino}-4-methyl-pentanoic acid], the Ki under setting [1] was greater than 0.5 µM.
On the same count and under the same terms, to `CCCCOC(=O)[C@H](Cc1cncn1Cc1cc(Cl)cc(Cl)c1)N[C@@H](CC(C)C)C(=O)O` [LD, (S,S) 2-{1-Butoxycarbonyl-2-[3-(3,5-dichloro-benzyl)-3H-imidazol-4-yl]-ethylamino}-4-methyl-pentanoic acid] belongs less than 0.1 µM; to `CCCCOC(=O)[C@H](Cc1cncn1Cc1cc(Cl)cc(Cl)c1)N[C@H](CC(C)C)C(=O)O` [LE, 2-[1-Butoxycarbonyl-2-[3-(3,5-dichloro-benzyl)-3H-imidazol-4-yl]-ethylamino]4-methyl-pentanoic acid], greater than 0.5 µM.
In the case of `CC(C)C[C@H](N[C@@H](Cn1ccn(Cc2cc(Cl)cc(Cl)c2)c1=O)C(=O)O)C(=O)O` [LF, (S,S) 2-{1-Carboxy-2-[3-(3,5-dichloro-benzyl)-2-oxo-2,3-dihydro-imidazol-1-yl]-ethylamino}-4-methyl-pentanoic acid], the Ki reads like this: under setting [1], less than 0.1 µM; under setting [2], 0.05 to 0.1 µM.
As to `CC(C)C[C@H](N[C@@H](Cn1ccn(Cc2cc(F)cc(F)c2)c1=O)C(=O)O)C(=O)O` [LG, 2-[1-Carboxy-2-[3-(3,5-difluoro-benzyl)-2-oxo-2,3-dihydro-imidazol-1-yl]-ethylamino]-4-methyl-pentanoic acid], the Ki by setting is: under setting [1], less than 0.1 µM; under setting [2], 0.05 to 0.1 µM.
Consider `CC(C)C[C@H](N[C@@H](Cn1ccn([C@@H](C)c2ccccc2)c1=O)C(=O)O)C(=O)O` [LH, (S,S)-2-{1-Carboxy-2-[2-oxo-3-(1-phenyl-ethyl)-2,3-dihydro-imidazol-1-yl]-ethylamino}-4-methyl-pentanoic acid], for which, under setting [1], the Ki fell in the range of 0.1 to 0.5 µM.
Still for that read-out and setting: to `CC(C)C[C@H](N[C@@H](CNC(=O)c1cccc(Cl)c1)C(=O)O)C(=O)O` [LI, (S,S)-2-[1-Carboxy-2-(3-chloro-benzoylamino)-ethylamino]-4-methyl-pentanoic acid] belongs greater than 0.5 µM; to `CC(C)C[C@H](N[C@@H](CNC(=O)c1ccc(Cl)c(Cl)c1)C(=O)O)C(=O)O` [LJ, (S,S)-2-[1-Carboxy-2-(3,4-dichloro-benzoylamino)-ethylamino]-4-methyl-pentanoic acid], greater than 0.5 µM; to `COC(=O)[C@H](Cc1cccc(O)c1)N[C@@H](CC(C)C)C(=O)OCc1ccccc1` [LK, 2-[2-(3-Hydroxy-phenyl)-1-methoxycarbonyl-ethylamino]-4-methyl-pentanoic acidbenzyl ester], greater than 0.5 µM.
On to `COC(=O)[C@@H](Cc1cccc(O)c1)N[C@@H](CC(C)C)C(=O)OCc1ccccc1` [LL, 2-[2-(3-Hydroxy-phenyl)-1-methoxycarbonyl-ethylamino]-4-methyl-pentanoic acid benzylester], for which the Ki under setting [1] was greater than 0.5 µM.
As for `CC(C)C[C@H](N[C@@H](Cc1coc(-c2ccccc2)n1)C(=O)O)C(=O)O` [LM, (S,S)-2-[1-Carboxy-2-(2-phenyl-oxazol-4-yl)ethylamino]-4-methyl-pentanoic acid], under setting [1], the Ki was greater than 0.5 µM.
For the compound `CC(C)C[C@H](N[C@@H](Cc1coc(-c2cc(Cl)cc(Cl)c2)n1)C(=O)O)C(=O)O` [LN, (S,S)-2-{1-Carboxy-2-[2-(3,5-dichlorophenyl)-oxazol-4-yl]ethylamino}-4-methyl-pentanoic acid], the Ki is, setting by setting: under setting [1], less than 0.1 µM; under setting [2], 0.05 to 0.1 µM.
As to `CC(C)C[C@H](N[C@@H](Cc1csc(-c2cc(Cl)cc(Cl)c2)n1)C(=O)O)C(=O)O` [LO, (S,S)-2-{1-Carboxy-2-[2-(3,5-dichlorophenyl)-thiazol-4-yl]-ethylamino}-4-methyl-pentanoic acid], the Ki under setting [1] was 0.1 to 0.5 µM.
In the case of `CC(C)C[C@H](N[C@@H](Cc1ccn(Cc2cc(Cl)cc(Cl)c2)n1)C(=O)O)C(=O)O` [LP, (S,S)-2-{1-carboxy-2-[1-(3,5-dichlorobenzyl)-1H-pyrazol-3-yl]-ethylamino}-4-methyl pentanoic acid], the Ki runs as follows: under setting [1], less than 0.1 µM; under setting [2], less than 0.05 µM.
With `CC(C)C[C@H](N[C@@H](Cc1cncn1Cc1cc(Cl)cc(Cl)c1)C(=O)OC1CCCC1)C(=O)O` [LQ, (S,S) 2-{1-Cyclopentyloxycarbonyl-2-[3-(3,5-dichloro-benzyl)-3H-imidazol-4-yl]-ethylamino}-4-methyl-pentanoic acid], under setting [1], the Ki was greater than 0.5 µM.
Same read-out and setting: to `CC(C)C[C@H](N[C@@H](CN1CCN(Cc2cc(F)cc(F)c2)C1=O)C(=O)O)C(=O)O` [LR, 2-[1-Carboxy-2-[3-(3,5-difluoro-benzyl)-2-oxo-imidazolidin-1-yl]-ethylamino]-4-methyl-pentanoic acid] belongs 0.1 to 0.5 µM; to `CC(C)C[C@H](N[C@@H](Cn1ccn(Cc2ccccc2)c1=O)C(=O)O)C(=O)O` [LS, 2-[2-(3-Benzyl-2-oxo-2,3-dihydro-imidazol-1-yl)-1-carboxy-ethylamino]-4-methyl-pentanoic acid], 0.1 to 0.5 µM.
Take `CC(C)C[C@H](N[C@@H](Cc1ccc(OCCc2ccccc2)cc1)C(=O)O)C(=O)O` [LT, 2-[1-Carboxy-2-(4-phenethyloxy-phenyl)-ethylamino]-4-methyl-pentanoic acid]: the Ki under setting [1] is 0.1 to 0.5 µM.
For `CC(C)C[C@H](N[C@@H](Cc1ccc(OC(C)(C)C)cc1)C(=O)O)C(=O)O` [LU, 2-[2-(4-tert-Butoxy-phenyl)-1-carboxy-ethylamino]-4-methyl-pentanoic acid], the Ki under setting [1] is greater than 0.5 µM.
With `CC(C)C[C@H](N[C@@H](Cc1ccc(OCc2ccncc2)cc1)C(=O)O)C(=O)O` [LV, 2-[1-Carboxy-2-[4-(pyridin4-ylmethoxy)-phenyl]-ethylamino]-4-methyl-pentanoic acid], the Ki reads like this: under setting [1], less than 0.1 µM; under setting [2], 0.05 to 0.1 µM.
As for `C=CCOc1ccc(C[C@H](N[C@@H](CC(C)C)C(=O)O)C(=O)O)cc1` [LW, 2-[2-(4-Allyloxy-phenyl)-1-carboxy-ethylamino]-4-methyl-pentanoic acid], the Ki is less than 0.1 µM under setting [1] and 0.05 to 0.1 µM under setting [2].
On to `CC(C)C[C@H](N[C@@H](Cc1ccc(OCc2cccnc2)cc1)C(=O)O)C(=O)O` [LX, S,S-2-{1-Carboxy-2-[4-(pyridin-3-ylmethoxy)-phenyl]-ethylamino}-4-methyl pentanoic acid], for which the Ki under setting [1] lay within 0.1 to 0.5 µM.
